Measurements as given in the supplement of paper PMC10307832.

Key:
Assay in all cases: relative viability (nuclei count vs DMSO), 5 days (fraction); higher = more cells survive
[1] = compound: CN(c1ncccc1CNc1nc(Nc2ccc3c(c2)CC(=O)N3)ncc1C(F)(F)F)S(C)(=O)=O + COc1cccc2cc(-c3nc([C@H]4CC[C@H](C(=O)O)CC4)n4ncnc(N)c34)[nH]c12 [OSI-027] (partner 0.5 µM)
Procedure, shortened: (§1)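 Relative viability divides the nuclei count in treated wells by that in vehicle wells. Lung cancer cell lines were seeded in 1536-well plates, dosed by pin tool the next day, and fixed and stained after 5 days in one step with final 0.05% Triton X-100, 1% formaldehyde and 1 ug/ml Hoechst. Dosing was a single drug or a fixed anchor-drug dose plus five library-drug doses (not always all listed) in √10 steps, and values are medians of duplicate plates imaged at 4×.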

[2] = compound: CN(c1ncccc1CNc1nc(Nc2ccc3c(c2)CC(=O)N3)ncc1C(F)(F)F)S(C)(=O)=O + CCNC(=O)c1noc(-c2cc(C(C)C)c(O)cc2O)c1-c1ccc(CN2CCOCC2)cc1 [Luminespib] (partner 0.01 µM)
Procedure, shortened: as §1

[3] = compound: CN(c1ncccc1CNc1nc(Nc2ccc3c(c2)CC(=O)N3)ncc1C(F)(F)F)S(C)(=O)=O + CS(=O)(=O)CCNCc1ccc(-c2ccc3ncnc(Nc4ccc(OCc5cccc(F)c5)c(Cl)c4)c3c2)o1 [Lapatinib] (partner 2 µM)
Procedure, shortened: as §1

[4] = compound: CN(c1ncccc1CNc1nc(Nc2ccc3c(c2)CC(=O)N3)ncc1C(F)(F)F)S(C)(=O)=O + C[C@]1(O)C[C@@H](c2nc(-c3ccc4ccc(-c5ccccc5)nc4c3)c3c(N)nccn32)C1 [Linsitinib] (partner 1 µM)
Procedure, shortened: as §1

Cell Line | relative viability ([1]; first compound 0.01 µM) | relative viability ([1]; first compound 0.03162 µM) | relative viability ([1]; first compound 0.1 µM) | relative viability ([1]; first compound 0.3162 µM) | relative viability ([1]; first compound 1 µM) | relative viability ([2]; first compound 0.01 µM) | relative viability ([2]; first compound 0.03162 µM) | relative viability ([2]; first compound 0.1 µM) | relative viability ([2]; first compound 0.3162 µM) | relative viability ([2]; first compound 1 µM) | relative viability ([3]; first compound 0.01 µM) | relative viability ([3]; first compound 0.03162 µM) | relative viability ([3]; first compound 0.1 µM) | relative viability ([3]; first compound 0.3162 µM) | relative viability ([3]; first compound 1 µM) | relative viability ([4]; first compound 0.01 µM) | relative viability ([4]; first compound 0.03162 µM) | relative viability ([4]; first compound 0.1 µM) | relative viability ([4]; first compound 0.3162 µM) | relative viability ([4]; first compound 1 µM)
NCI-H358 | 0.791 | 0.822 | 0.849 | 0.815 | 0.752 | 0.292 | 0.465 | 0.397 | 0.247 | 0.214 | 0.449 | 0.414 | 0.42 | 0.431 | 0.397 | 0.739 | 0.727 | 0.626 | 0.705 | 0.666
SK-MES-1 | 0.562 | 0.571 | 0.475 | 0.491 | 0.429 | 0.782 | 0.813 | 0.809 | 0.788 | 0.673 | 0.456 | 0.456 | 0.473 | 0.422 | 0.474 | 1.04 | 1.06 | 1.08 | 0.925 | 1.01
NCI-H1666 | 0.779 | 0.841 | 0.792 | 0.695 | 0.556 | 0.936 | 0.939 | 0.923 | 0.786 | 0.612 | 0.678 | 0.624 | 0.611 | 0.546 | 0.493 | 0.814 | 0.816 | 0.943 | 0.72 | 0.612
NCI-H1355 | 0.481 | 0.428 | 0.377 | 0.412 | 0.396 | 0.713 | 0.723 | 0.645 | 0.624 | 0.65 | 1.03 | 1.04 | 0.985 | 0.919 | 0.873 | 0.776 | 0.943 | 0.846 | 0.78 | 0.679
HCC-827 | 0.765 | 0.775 | 0.821 | 0.799 | 0.759 | 0.346 | 0.612 | 0.595 | 1.02 | 0.629 | 0.186 | 0.149 | 0.215 | 0.177 | 0.182 | 0.999 | 0.915 | 0.93 | 0.905 | 0.914
HARA | 0.54 | 0.481 | 0.524 | 0.612 | 0.55 | 0.589 | 0.887 | 0.602 | 0.606 | 0.549 | 0.763 | 0.692 | 0.616 | 0.678 | 0.665 | 0.945 | 1.06 | 1.03 | 0.978 | 0.856
NCI-H322M | 0.562 | 0.598 | 0.537 | 0.599 | 0.623 | 0.798 | 1 | 0.966 | 1.03 | 0.896 | 0.585 | 0.675 | – | 0.596 | 0.653 | 1.02 | 1.08 | – | 1.1 | 1.16
NCI-H2347 | 0.339 | 0.416 | 0.326 | 0.449 | 0.314 | 0.643 | 0.557 | 0.243 | 0.592 | 0.389 | 1.04 | 1.01 | 0.88 | 0.863 | 0.833 | 0.938 | 0.98 | 0.852 | 0.947 | 0.817
NCI-H1975 | 0.747 | 0.675 | 0.796 | 0.694 | 0.615 | 0.243 | 0.259 | 0.239 | 0.389 | 0.194 | 0.921 | 0.971 | 0.914 | 0.926 | 0.723 | 1.01 | 1.22 | 1.02 | 0.925 | 0.821
UMC-11 | 0.461 | 0.477 | 0.45 | 0.459 | 0.421 | 0.928 | 0.998 | 0.97 | 1.11 | 0.924 | 1.03 | 1.06 | 0.866 | 0.995 | 0.678 | 0.979 | 1.02 | 1.03 | 0.952 | 0.781
ABC-1 | 0.424 | 0.537 | 0.432 | 0.498 | 0.499 | 0.557 | 0.985 | 0.511 | 0.524 | 0.516 | 1.29 | 1.15 | 1.36 | 1.13 | 1.21 | 0.908 | 0.914 | 0.75 | 0.814 | 0.967
A-427 | 0.472 | 0.553 | 0.504 | 0.44 | 0.475 | 0.908 | 1.1 | 0.832 | 0.921 | 0.905 | 1.05 | 1.05 | 1 | 1.04 | 1.02 | 1.12 | 1.12 | 1.1 | 1.14 | 1.06
LCLC-97TM1 | 0.512 | 0.524 | 0.42 | 0.458 | 0.576 | 0.779 | 0.854 | 0.788 | 0.81 | 0.632 | – | 0.658 | 0.841 | 0.752 | 0.516 | – | 0.226 | 0.167 | 0.216 | 0.152
HCC-15 | 0.748 | 0.699 | 0.675 | 0.626 | 0.527 | 0.543 | 0.456 | 0.349 | 0.407 | 0.301 | 0.876 | 0.905 | 0.72 | 0.775 | 0.723 | 0.898 | 0.894 | 0.802 | 0.86 | 0.688
NCI-H647 | 0.656 | 0.76 | 0.683 | 0.62 | 0.592 | 0.127 | 0.163 | 0.122 | 0.103 | 0.119 | 1.19 | 1.3 | 1.11 | 1.04 | 1.03 | 1.1 | 1.4 | 1.13 | 0.95 | 1.1
SW 1573 | 0.549 | 0.669 | 0.569 | 0.738 | 0.559 | 0.726 | 0.195 | 0.289 | 0.311 | 0.189 | 1.18 | 1.09 | 1.21 | 1.27 | 1.08 | 0.926 | 0.635 | 0.754 | 0.863 | 0.867
